{
  "source": "patent US20180135022A1",
  "about": "“METHOD FOR PRODUCING ARTIFICIAL SYNCYTIOTROPHOBLAST AND PROGENITOR CELL THEREOF” (Sumitomo Chemical Company, Limited, priority 2015, published 2018)",
  "key": {"KhES-1 cells": {"tested_on": "KhES-1 cells", "assay": "Syncytin gene mRNA by real-time PCR after differentiation culturing, Example 3", "format": "cell-based, human", "settings": "single agent added to Basal differentiation medium B (0.1 μM S26948, 10 μM GW 1929, 0.1 μM CGP 7930, 10 nM SR 11237 or 1 nM retinoic acid), day 5; in comparison with Control", "method": "According to the method described in (1) in Example 2, KhES-1 cells were maintenance cultured, and then subjected to the MEF removing operation. […] S26948, GW 1929, CGP 7930 and SR 11237 were dissolved in DMSO so that they were respectively 100 mM, and retinoic acid was dissolved in DMSO so that it was 10 mM, and each DMSO solution was added to Basal differentiation medium B.\nOn day 5 of the culturing of the culture using the differentiation medium, total RNA was extracted from cells by using RNeasy Micro Kit (QIAGEN). The obtained total RNA was reverse transcribed by using SuperScript III (Invitrogen), and by real-time PCR using the obtained DNA as a template, TaqMan probe (Applied biosystems) and TaqMan Fast advanced master mix (Applied biosystems), the expression amount of Syncytin gene which is a marker gene of syncytiotrophoblast was examined. For the cells obtained in each culturing, the mRNA amount of Syncytin gene and the mRNA amount of GAPDH gene which is a house keeping gene were determined by real-time PCR. The value obtained by dividing the mRNA amount of Syncytin gene by the mRNA amount of GAPDH gene is defined as a correction value of mRNA amount of Syncytin gene, and taking the Syncytin gene mRNA amount correction value in cells cultured in Basal differentiation medium B (Control) as 1, a Syncytin gene mRNA amount correction value in cells cultured in each of other culture media was shown as a relative expression amount. The operation from the cell culturing to measurement of mRNA amount was repeated three times. In FIG. 2, a standard error of relative expression amount is indicated by an error bar. The relative expression amount having a statistically significant difference with respect to the relative expression amount of Control is marked with asterisks (** means a P value of 0.001 or more and less than 0.01, and *** means a P value of less than 0.001). In comparison with the cells cultured in Basal differentiation medium B (Control), the relative expression amount of Syncytin gene increased in cells that were cultured in a differentiation medium supplemented with either of S26948 (2-1) or GW 1929 (2-2) that is a PPARγ agonist, CGP 7930 (2-3) that is a GABABR positive allosteric modulator, SR 11237 (2-4) that is an RXR agonist or retinoic acid (2-5) that is an RAR agonist."}, "[1]": {"tested_on": "GCM1-GFP knock-in human ES cells", "assay": "Percentage of GFP positive cells (GCM1 gene expression) after differentiation culturing, Example 2", "format": "cell-based", "settings": "day 6", "method": "S26948, GW 1929, CGP 7930 and SR 11237 were dissolved in DMSO so that they were respectively 1 mM, and retinoic acid was dissolved in DMSO so that it was 10 mM, and each DMSO solution was added to Basal differentiation medium A.\nOn day 6 of the culturing using the differentiation medium, cells were washed twice with PBS (Invitrogen), and fixed with 4% paraformaldehyde (Wako) for 15 minutes. After subjecting the cells to a membrane permeabilizing treatment for 5 minutes by using PBS supplemented with 0.3% Triton X-100 (Wako), the cells were washed three times with PBS. Then after blocking the cells for 1 hour to 2 hours with 3% Bovine Serum Albumin (BSA, Sigma-Aldrich), the cells were immunostained by using 5 μg/ml chicken anti-GFP antibody (Abcam), 2 μg/ml goat anti-chicken IgG antibody Alexa 488 (Life technologies) and 1 μg/ml Hoechst 33342 (DOJINDO). For the obtained stained sample, the percentage of the GFP positive cells indicating expression of GCM1 gene was quantified by using a fully automatic image analyzer Arrayscan (Thermo Scientific)."}, "term placenta": {"tested_on": "term placenta", "settings": "cited from earlier work"}, "[2]": {"tested_on": "cell layer of cells differentiated from KhES-1 cells", "settings": "human, 120 min", "quoted_text": "(§1) After two days from the seeding to the cell culture insert, the electric resistance (Ω) of the cell layer formed on the cell culture insert was measured by using a Millicell ERS-2 (Millipore), and from the obtained measurement value, the electric resistance of the blank in which cells are not seeded was subtracted, and the resultant value was multiplied with the area of the membrane filter (cm^2) to determine a transepithelial electric resistance (TEER, Ω·cm^2).\n(§2) The culture medium in the insert and in the multiple well plate was replaced by Hanks' Balanced Salt Solution (HBSS) (no phenol red, Life Technologies), and incubated for 30 minutes to 45 minutes at 37° C. 5% CO2. The culture medium in the insert (apical side) is replaced by HBSS containing a test substance, and cultured at 37° C. under stirring at 300 rpm.\n(§3) After 120 minutes from addition of the test substance, 100 μl of HBSS containing the permeated test substance was collected from inside the multiple well plate, and the same amount of HBSS was added to the collected HBSS. By quantifying the test substance in the culture medium in the multiple well plate by LC-MS, the permeability of the test substance in the cell layer was evaluated. A value obtained by dividing the permeation amount of each test substance by the permeation amount of antipyrine is shown as an in vitro relative permeation amount in Table 4."}, "[3]": {"tested_on": "GCM1-GFP knock-in human ES cells", "assay": "Percentage of GFP positive cells at different retinoic acid concentrations, Example 9", "format": "cell-based", "settings": "day 5"}, "[4]": {"tested_on": "cell layer of cells differentiated from 201B7 cells", "settings": "human, 120 min", "quoted_text": "(§4) The culture medium in the insert and in the multiple well plate was replaced by Hanks' Balanced Salt Solution (HBSS) (no phenol red, Life Technologies), and incubated for 30 minutes to 45 minutes at 37° C. […] The culture medium in the insert (apical side) is replaced by HBSS containing a test substance, and cultured at 37° C. under stirring at 300 rpm.\n(§5) After 120 minutes from addition of the test substance, 100 μl of HBSS containing the test substance was collected from inside the multiple well plate, and the same amount of HBSS was added to the collected HBSS. By quantifying the test substance in the culture medium in the multiple well plate by LC-MS, the permeability of the test substance in the cell layer was evaluated. A value obtained by dividing the permeation amount of each test substance by the permeation amount of antipyrine is shown as an in vitro relative permeation amount in Table 5."}, "[5]": {"tested_on": "cell layer of cells differentiated from KhES-1 cells", "assay": "Cell layer permeability test on cell culture insert, cells differentiated from human ES cells, Example 13", "settings": "permeation amount after 120 minutes divided by that of antipyrine; apical side dosing, HBSS, LC-MS; cells from KhES-1", "quoted_text": "as §1, §2, §3"}, "[6]": {"tested_on": "cell layer of cells differentiated from 201B7 cells", "assay": "Cell layer permeability test on cell culture insert, cells differentiated from human iPS cells, Example 15", "settings": "permeation amount after 120 minutes divided by that of antipyrine; apical side dosing, HBSS, LC-MS; cells from iPS line 201B7", "quoted_text": "as §4, §5"}, "[7]": {"settings": "1 μM added to Basal differentiation medium A (3 ng/ml BMP4), in comparison with Control A (0.1% DMSO)"}, "[8]": {"settings": "Table 4, excerpted from Li, H. et al. Arch. Toxicol. 2013"}, "[9]": {"settings": "Table 5, excerpted from Li, H. et al. Arch. Toxicol. 2013"}},
  "note": "Where two headings read alike, the source gives them in different places.",
  "data": [
    {"smiles": "CC(C)(CO)Cc1cc(C(C)(C)C)c(O)c(C(C)(C)C)c1", "note": "[CGP 7930]", "values": [
      {"measurement": "relative expression amount of Syncytin gene", "setting": "KhES-1 cells", "value": "increased"},
      {"measurement": "increase in the percentage of the GFP positive cells", "setting": "[1]; [7]", "value": "about 20%"}
    ]},
    {"smiles": "C[C@H]1O[C@@H](O[C@H]2[C@@H](O)C[C@H](O[C@H]3[C@@H](O)C[C@H](O[C@H]4CC[C@@]5(C)[C@H](CC[C@@H]6[C@@H]5C[C@@H](O)[C@]5(C)[C@@H](C7=CC(=O)OC7)CC[C@]65O)C4)O[C@@H]3C)O[C@@H]2C)C[C@H](O)[C@@H]1O", "note": "[Digoxin]", "values": [
      {"measurement": "Ex vivo relative permeation amount (literature value)", "setting": "term placenta; [8]", "value": 0.13},
      {"measurement": "In vitro relative permeation amount", "setting": "[2]", "value": 0.24}
    ]},
    {"smiles": "CC1(C)CCC(C)(C)c2cc(C3(c4ccc(C(=O)O)cc4)OCCO3)ccc21", "note": "[SR 11237]", "values": [
      {"measurement": "relative expression amount of Syncytin gene", "setting": "KhES-1 cells", "value": "increased"},
      {"measurement": "increase in the percentage of the GFP positive cells", "setting": "[1]; [7]", "value": "about 20%"}
    ]},
    {"smiles": "CC1=C(/C=C/C(C)=C/C=C/C(C)=C/C(=O)O)C(C)(C)CCC1", "note": "[retinoic acid]", "values": [
      {"measurement": "increase in the percentage of GFP positive cells", "setting": "[3]; 1 nM or 10 nM retinoic acid in Basal differentiation medium B, compared with Control without retinoic acid", "value": "about 10%"},
      {"measurement": "decrease in the percentage of GFP positive cells", "setting": "[3]; 100 nM or more retinoic acid in Basal differentiation medium B, compared with Control", "value": "≥ 10", "unit": "%"},
      {"measurement": "increase in the percentage of the GFP positive cells", "setting": "[1]; 1 nM retinoic acid (Table 1 prints 1 μM) in Basal differentiation medium A, compared with Control B (no retinoic acid)", "value": "about 6%"}
    ]},
    {"smiles": "COC(=O)C(Cc1ccc(OCCn2c(=O)sc3cc(C(=O)c4ccccc4)ccc32)cc1)C(=O)OC", "note": "[S26948]", "values": [
      {"measurement": "relative expression amount of Syncytin gene", "setting": "KhES-1 cells", "value": "increased"},
      {"measurement": "increase in the percentage of the GFP positive cells", "setting": "[1]; [7]", "value": "about 20%"}
    ]},
    {"smiles": "CN(CCOc1ccc(C[C@H](Nc2ccccc2C(=O)c2ccccc2)C(=O)O)cc1)c1ccccn1", "note": "[GW 1929]", "values": [
      {"measurement": "relative expression amount of Syncytin gene", "setting": "KhES-1 cells", "value": "increased"},
      {"measurement": "increase in the percentage of the GFP positive cells", "setting": "[1]; [7]", "value": "about 20%"}
    ]},
    {"smiles": "Cn1c(=O)c2c(ncn2C)n(C)c1=O", "note": "[Caffeine]", "values": [
      {"measurement": "Ex vivo relative permeation amount (literature value)", "setting": "term placenta; [8]", "value": 1.5},
      {"measurement": "Ex vivo relative permeation amount (literature value)", "setting": "term placenta; [9]", "value": 1.5},
      {"measurement": "In vitro relative permeation amount", "setting": "[4]", "value": 1.1},
      {"measurement": "In vitro relative permeation amount", "setting": "[2]", "value": 1.4}
    ]},
    {"smiles": "Cc1cc(=O)n(-c2ccccc2)n1C", "note": "[Antipyrine]", "values": [
      {"measurement": "Ex vivo relative permeation amount (literature value)", "setting": "term placenta", "value": 1},
      {"measurement": "In vitro relative permeation amount", "setting": "[4]", "value": 1},
      {"measurement": "In vitro relative permeation amount", "setting": "[2]", "value": 1}
    ]},
    {"smiles": "COc1ccc2c(c1)c(CC(=O)O)c(C)n2C(=O)c1ccc(Cl)cc1", "note": "[Indomethacin]", "values": [
      {"measurement": "Ex vivo relative permeation amount (literature value)", "setting": "term placenta; [8]", "value": 0.66},
      {"measurement": "Ex vivo relative permeation amount (literature value)", "setting": "term placenta; [9]", "value": 0.66},
      {"measurement": "In vitro relative permeation amount", "setting": "[5]", "value": 0.72},
      {"measurement": "In vitro relative permeation amount", "setting": "[6]", "value": 0.62}
    ]}
  ]
}
